For this assay, the system named is Saccharomyces cerevisiae wild type BY4741. Description: MIC determination in Saccharomyces cerevisiae wild type BY4741. It is filed as cell-based. The protocol: In Vitro Antifungal Activity. MIC values for various strains were determined in accordance with the standard protocol from the National Committee of Clinical Laboratory Standards but using YEPD liquid medium instead of RPMI-1640 medium (National Committee of Clinical Laboratory Standards (Reference Method for Broth Dilution Antifungal Susceptibility Testing of Yeast, M27-A2, Approved Standard-Second Edition, Volume 22, Number 15, 1995). AmB was used as a reference. The strains were cultivated overnight in 5 mL YEPD liquid medium at 30 to 37° C. (30° C. for the strain BY4741; 37° C. for the strain DSY1764) with constant shaking. The saturated cultures were diluted to an ODB600 of 0.1 (3×10P^7 cells/mL). Using 24 wells plate, each well was prepared by adding 1% (12 μL) of DMSO solution of the tested polyene macrolide with 1% (12 μL) yeast cells solution and completed with YEPD (1.176 mL). The plates were sealed with Parafilm and then incubated for 18 to 36 hours at 30 to 37° C. (18 hours at 30° C. for the strain BY4741; 36 hours at 37° C. for the strain DSY1764). The optical density was read at 600 nm using 1.5 mL cuvettes. The MIC value was defined as the drug concentration needed to inhibit growth, less than 5% compared to a drug-free culture.
MIC values of various polyene macrolides of the invention in Saccharomyces cerevisiae wild type BY4741, a derivative of S288C, (with AmB as a reference) were determined as described hereinabove.
Based on the remarkable performance observed with the Diamine-AmB conjugate similar modifications of the aminosugar moiety were made on other polyene macrolides, such as for example Nystatin (1b) and Pimaricin (1c). The antifungal activity of these nystatin and pimaricin conjugates bearing two aminopropyl side chains was measured using Saccharomyces cerevisiae wild type BY4741.

[1] abbreviates: Table 5, Saccharomyces cerevisiae wild type BY4741, read-out: MIC.
[2] abbreviates: Saccharomyces cerevisiae wild type BY4741, YEPD liquid medium, 18 hours at 30° C., read-out: MIC.
Setting [3] is: Saccharomyces cerevisiae wild type BY4741.

In brackets after ≈: the same amount, converted by molar mass. Like-named read-outs stand apart in the source and are kept apart here.

Turning to `C[C@@H]1[C@H](O)[C@@H](C)/C=C/C=C/CC/C=C/C=C/C=C/C=C/C(O[C@H]2O[C@H](C)[C@@H](O)[C@H](N)[C@@H]2O)CC2O[C@](O)(CC(O)C(O)CCC(O)CC(O)CC(O)CC(=O)O[C@H]1C)CC(O)C2C(=O)O` (stereo partly drawn) [1b (Nystatin), Nystatin, reference compound], the MIC under setting [1] was 3.0 µM (≈ 2.78 µg/mL).

Regarding `C[C@@H]1C/C=C/C=C/C=C/C=C/[C@H](O[C@@H]2O[C@H](C)[C@@H](O)[C@H](N)[C@@H]2O)C[C@@H]2O[C@](O)(C[C@@H](O)C[C@H]3O[C@@H]3/C=C/C(=O)O1)C[C@H](O)[C@H]2C(=O)O` [1c (Pimaricin), Pimaricin, reference compound], under setting [1], the MIC is 4 µM (≈ 2.66 µg/mL).

Where the note is “Saccharomyces cerevisiae, 18 h”, `C[C@@H]1[C@H](O)[C@@H](C)/C=C/C=C/C=C/C=C/C=C/C=C/C=C/[C@H](OC2O[C@H](C)[C@@H](O)[C@H](N(CCN)CCN)[C@@H]2O)CC2O[C@](O)(C[C@@H](O)C[C@@H](O)[C@H](O)CC[C@@H](O)C[C@@H](O)CC(=O)O[C@H]1C)C[C@H](O)[C@H]2C(=O)O` (stereo partly drawn) [compound 2, N,N-Di-(2-aminoethyl)-AmB] had an MIC of 0.25 µM (≈ 0.253 µg/mL).

The compound `C[C@@H]1[C@H](O)[C@@H](C)/C=C/C=C/C=C/C=C/C=C/C=C/C=C/[C@H](OC2O[C@H](C)[C@@H](O)[C@H](N(CCCO)CCCO)[C@@H]2O)CC2O[C@](O)(C[C@@H](O)C[C@@H](O)[C@H](O)CC[C@@H](O)C[C@@H](O)CC(=O)O[C@H]1C)C[C@H](O)[C@H]2C(=O)O` (stereo partly drawn) [compound 4, N,N-Di-(3-hydroxypropyl)-AmB] registered an MIC (Saccharomyces cerevisiae, 18 h) of 0.5 µM (≈ 0.52 µg/mL).

As to `C[C@@H]1[C@H](O)[C@@H](C)/C=C/C=C/C=C/C=C/C=C/C=C/C=C/[C@H](O[C@@H]2O[C@H](C)[C@@H](O)[C@H](N(CC(N)CCCCN)CC(N)CCCCN)[C@@H]2O)CC2O[C@](O)(C[C@@H](O)C[C@@H](O)[C@H](O)CC[C@@H](O)C[C@@H](O)CC(=O)O[C@H]1C)C[C@H](O)[C@H]2C(=O)O` (stereo partly drawn) [compound 5, N,N-Di-(2,6-diaminohexyl)-AmB], the MIC (Saccharomyces cerevisiae, 18 h) worked out at 0.08 µM (≈ 0.0922 µg/mL).

As to `C[C@@H]1[C@H](O)[C@@H](C)/C=C/C=C/C=C/C=C/C=C/C=C/C=C/[C@H](O[C@@H]2O[C@H](C)[C@@H](O)[C@H](N(CCNC(=N)N)CCNC(=N)N)[C@@H]2O)CC2O[C@](O)(C[C@@H](O)C[C@@H](O)[C@H](O)CC[C@@H](O)C[C@@H](O)CC(=O)O[C@H]1C)C[C@H](O)[C@H]2C(=O)O` [compound 6, N,N-Di-(2-ethylguanidine)-AmB], the lowest concentration to inhibit growth (Saccharomyces cerevisiae, 18 h) (MIC) was 0.1 µM (≈ 0.109 µg/mL).

Consider `C[C@@H]1[C@H](O)[C@@H](C)/C=C/C=C/C=C/C=C/C=C/C=C/C=C/[C@H](O[C@@H]2O[C@H](C)[C@@H](O)[C@H](N3CCN(C(=O)CCCCCNC(=O)C(N)CCCCN)CC3)[C@@H]2O)CC2O[C@](O)(C[C@@H](O)C[C@@H](O)[C@H](O)CC[C@@H](O)C[C@@H](O)CC(=O)O[C@H]1C)C[C@H](O)[C@H]2C(=O)O` (stereo partly drawn) [compound 7, 2,6-Diamino-N-[6-oxo-6-(piperazin-1-yl)-hexyl]-hexanamide-AmB], for which the MIC under setting [2] was 0.1 µM (≈ 0.123 µg/mL).

Regarding `C[C@@H]1[C@H](O)[C@@H](C)/C=C/C=C/C=C/C=C/C=C/C=C/C=C/[C@H](O[C@@H]2O[C@H](C)[C@@H](O)[C@H](N3CCN(C(=O)CCCCCNC(=O)C(N)CCCCNC(=N)N)CC3)[C@@H]2O)CC2O[C@](O)(C[C@@H](O)C[C@@H](O)[C@H](O)CC[C@@H](O)C[C@@H](O)CC(=O)O[C@H]1C)C[C@H](O)[C@H]2C(=O)O` (stereo partly drawn) [compound 8, 2-Amino-6-guanidine-N-[6-oxo-6-(piperazin-1-yl)-hexyl]-hexanamide-AmB], under setting [2], the MIC was 0.1 µM (≈ 0.128 µg/mL).

For `C[C@@H]1[C@H](O)[C@@H](C)/C=C/C=C/CC/C=C/C=C/C=C/C=C/[C@H](O[C@@H]2O[C@H](C)[C@@H](O)[C@H](N(CCCN)CCCN)[C@@H]2O)CC2O[C@](O)(C[C@@H](O)[C@H](O)CC[C@@H](O)C[C@@H](O)C[C@@H](O)CC(=O)O[C@H]1C)C[C@H](O)[C@H]2C(=O)O` [compound 17, N,N-Di-(3-aminopropyl)-Nystatin], for the setting “Saccharomyces cerevisiae”, the MIC was found to be 0.05 µM (≈ 0.052 µg/mL). In addition, the “antifungal activity compared with the native compounds 1b and 1c” value under setting [3] is recorded as “significantly more active”.

`C[C@@H]1C/C=C/C=C/C=C/C=C/[C@H](O[C@@H]2O[C@H](C)[C@@H](O)[C@H](N(CCCN)CCCN)[C@@H]2O)C[C@@H]2O[C@](O)(C[C@@H](O)C[C@H]3O[C@@H]3/C=C/C(=O)O1)C[C@H](O)[C@H]2C(=O)O` [compound 18, N,N-Di-(3-aminopropyl)-Pimaricin]: the “antifungal activity compared with the native compounds 1b and 1c” value under setting [3] is on record as “significantly more active”. The MIC under setting [1] is 0.3 µM (≈ 0.234 µg/mL).

(Values after patent US20090186838A1, “Amphotericin Derivatives” (Eidgenössische Technische Hochschule Zürich, priority 2006, published 2009).)
